According to patent US20200339548A1, “PYRIMIDINE DERIVATIVES AND THEIR USE FOR THE TREATMENT OF CANCER” (Adorx Therapeutics Limited, priority 2017, published 2020):
Where two headings read alike, the source gives them in different places.

Legend:
Adenosine A2a receptor = molecular target: T1, Adenosine A2a receptor (Homo sapiens, UniProt P29274); experiment: Adenosine receptor TR-FRET binding assay, A2a; conditions: displacement of 100 nM CA200645, CHO cell membranes
T1 construct: expressed in transfected cells; host or cells: CHO cell membranes
T1 sequence (P29274 whole entry): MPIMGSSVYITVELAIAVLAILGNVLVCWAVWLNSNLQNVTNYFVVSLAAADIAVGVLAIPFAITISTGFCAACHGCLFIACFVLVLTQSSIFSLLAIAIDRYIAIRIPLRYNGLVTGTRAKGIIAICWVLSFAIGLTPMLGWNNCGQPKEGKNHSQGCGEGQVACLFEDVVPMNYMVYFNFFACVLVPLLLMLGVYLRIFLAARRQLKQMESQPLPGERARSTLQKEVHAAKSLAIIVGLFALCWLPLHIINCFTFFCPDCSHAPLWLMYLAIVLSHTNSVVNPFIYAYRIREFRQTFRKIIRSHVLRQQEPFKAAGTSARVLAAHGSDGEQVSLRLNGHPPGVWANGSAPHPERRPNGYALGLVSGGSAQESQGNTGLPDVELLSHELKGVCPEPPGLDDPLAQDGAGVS
Protocol: (§1) All FRET binding experiments were conducted at room temperature in white 384-well plates, in assay binding buffer containing 1× LabMed (Cisbio, France), 100 μg/mL saponin, 1% DMSO and 0.02% pluronic acid. Binding of the fluorescently labelled Adenosine receptor antagonist XAC (CA200645, FRET acceptor) to terbium-labelled A1, A2a, A2b and A3 adenosine receptors (FRET donors) was detected by time-resolved FRET due to the close proximity of the donor and acceptor in a binding event. To investigate the ability of unlabelled test compounds to bind to Adenosine A1, A2a, A2b and A3 receptors, dose response curves were constructed that determined the ability of a range of concentrations to inhibit the binding of 30 nM CA200645 to the A2b receptor and 100 nM CA200645 to the A1, A2a, and A3 receptor.
(§2) Serial dilution (1:3 dilutions) of test compounds in neat DMSO and transfer of a 400 nL sample of test compound into the assay plate was carried out using the Mosquito (TTP Labtech, UK). The compound samples were incubated for 2 hours at room temperature with a fixed concentration of CA200645 defined for each receptor (see above) and CHO cell membranes containing the human Adenosine A1 (0.5 μg/well), A2a (0.3 μg/well), A2b (1 μg/well) or A3 (1 μg/well) receptor in 40 μL of assay buffer. Total and non-specific binding of CA200645 was determined in the absence and presence of 10 μM XAC, respectively.
(§3) Following 2 hours incubation, the level of CA200645 binding was detected on a Pherastar FSX (BMG Labtech, Germany) using standard TR-FRET settings. The terbium donor was excited with three laser flashes at a wavelength of 337 nm, and donor and acceptor emission was detected at 620 nm and 665 nm wavelengths, respectively. FRET ratios were obtained by multiplying the acceptor/donor ratio value by 10,000. Specific binding was determined by subtracting the non-specific binding FRET ratio from the total binding FRET ratio. Compound IC50 curves were analysed using GraphPad Prism 7.0 (GraphPad, USA) and Ki affinity values were determined from the obtained […] values using the method of Cheng and Prusoff.

Adenosine A1 receptor = molecular target: T2, Adenosine A1 receptor (Homo sapiens, UniProt P30542); experiment: Adenosine receptor TR-FRET binding assay, A1; conditions: Table 9, further testing; displacement of 100 nM CA200645, CHO cell membranes
T2 construct: expressed in transfected cells; host or cells: CHO cell membranes
T2 sequence (P30542 1-326): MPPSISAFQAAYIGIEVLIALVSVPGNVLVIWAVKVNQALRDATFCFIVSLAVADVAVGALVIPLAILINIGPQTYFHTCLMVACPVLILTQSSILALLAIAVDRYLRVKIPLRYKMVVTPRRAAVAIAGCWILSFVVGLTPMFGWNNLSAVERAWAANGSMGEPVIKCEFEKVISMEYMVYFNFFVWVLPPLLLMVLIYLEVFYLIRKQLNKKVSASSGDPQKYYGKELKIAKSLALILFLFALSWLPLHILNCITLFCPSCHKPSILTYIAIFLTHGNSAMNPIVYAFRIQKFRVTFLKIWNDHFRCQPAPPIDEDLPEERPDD
Protocol: as §1, §2, §3

Adenosine A2b receptor = molecular target: T3, Adenosine A2b receptor (Homo sapiens, UniProt P29275); experiment: Adenosine receptor TR-FRET binding assay, A2b; conditions: Table 9, further testing; displacement of 30 nM CA200645, CHO cell membranes
T3 construct: expressed in transfected cells; host or cells: CHO cell membranes
T3 sequence (P29275 1-332): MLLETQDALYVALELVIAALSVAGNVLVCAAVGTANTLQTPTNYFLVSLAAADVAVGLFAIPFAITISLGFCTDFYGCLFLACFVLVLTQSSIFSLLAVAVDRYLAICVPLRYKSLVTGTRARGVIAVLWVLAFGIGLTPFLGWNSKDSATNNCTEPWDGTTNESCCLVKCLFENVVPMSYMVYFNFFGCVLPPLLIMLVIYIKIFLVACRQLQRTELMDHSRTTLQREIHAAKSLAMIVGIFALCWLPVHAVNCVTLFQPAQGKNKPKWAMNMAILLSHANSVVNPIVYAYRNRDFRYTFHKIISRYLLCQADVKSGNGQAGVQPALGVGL
Protocol: as §1, §2, §3

Adenosine A3 receptor = molecular target: T4, Adenosine A3 receptor (Homo sapiens, UniProt P0DMS8); experiment: Adenosine receptor TR-FRET binding assay, A3
T4 construct: expressed in transfected cells; host or cells: CHO cell membranes
T4 sequence (P0DMS8 1-318): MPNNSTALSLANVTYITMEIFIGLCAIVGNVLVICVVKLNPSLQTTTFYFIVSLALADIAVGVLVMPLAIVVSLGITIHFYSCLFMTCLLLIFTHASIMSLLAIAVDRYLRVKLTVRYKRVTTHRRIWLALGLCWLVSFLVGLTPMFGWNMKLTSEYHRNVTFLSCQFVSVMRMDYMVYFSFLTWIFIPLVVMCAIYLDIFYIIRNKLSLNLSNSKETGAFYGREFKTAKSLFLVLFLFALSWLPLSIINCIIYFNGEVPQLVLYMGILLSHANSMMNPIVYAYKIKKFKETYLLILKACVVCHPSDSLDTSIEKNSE
Protocol: as §1, §2, §3

[1] = Table 9, further testing, displacement of 100 nM CA200645, CHO cell membranes, read-out: A3 Ki

| SMILES | Ki (Adenosine A2a receptor; Table 9, further testing) | Ki (Adenosine A1 receptor) | Ki (Adenosine A2b receptor) | Ki (Adenosine A3 receptor; [1]) | Ki (Adenosine A2a receptor; Table 8, Cheng and Prusoff) | Ki (Adenosine A3 receptor) |
| --- | --- | --- | --- | --- | --- | --- |
| Cc1cccc(CNC(=O)c2cnc(-c3ccco3)nc2N)c1 [Example 5.34, 4-Amino-2-(2-furyl)-N-(m-tolylmethyl) pyrimidine-5-carboxamide] | 10 nM | 1040 nM | 1410 nM | 1910 nM |  |  |
| Cc1cccnc1CNC(=O)c1c(N)nc(-c2ccco2)nc1OCCCO [Example 20.8, 4-Amino-2-(2-furyl)-6-(3-hydroxypropoxy)-N-[(3-methyl-2-pyridyl)methyl]pyrimidine-5-carboxamide] | 0.199 nM | 7.5 nM | 165 nM | 24 nM |  |  |
| COc1cc(CNC(=O)c2cnc(-c3ccco3)nc2N)cc(OC)c1 [Example 5.43, 4-Amino-N-[(3,5-dimethoxyphenyl)methyl]-2-(2-furyl)pyrimidine-5-carboxamide] | 58 nM | 4780 nM | 5140 nM | 5920 nM |  |  |
| Nc1cccnc1CNC(=O)c1cnc(-c2ccco2)nc1N [Example 5.53, 4-Amino-N-[(3-amino-2-pyridyl)methyl]-2-(2-furyl)pyrimidine-5-carboxamide] | 11 nM | 6020 nM | 644 nM | 4630 nM |  |  |
| Nc1nc(-c2ccco2)ncc1C(=O)NCc1cccc(F)c1 [Example 5.13, 4-Amino-N-[(3-fluorophenyl)methyl]-2-(2-furyl)pyrimidine-5-carboxamide] | 20 nM | 3550 nM | 3970 nM | 2680 nM | 20 nM |  |
| Nc1nc(-c2cccc(F)c2)ncc1C(=O)NCc1cccc(C(F)(F)F)c1 [Example 10.11, 4-Amino-2-(3-fluorophenyl)-N-[[3-(trifluoromethyl)phenyl]methyl]pyrimidine-5-carboxamide] | 976 nM | 632 nM | 3190 nM | 1850 nM | 976 nM |  |
| Cc1cccnc1CNC(=O)c1c(N)nc(-c2ccco2)nc1OCCO [Example 20.1, 4-Amino-2-(2-furyl)-6-(2-hydroxyethoxy)-N-[(3-methyl-2-pyridyl)methyl]pyrimidine-5-carboxamide] | 0.13 nM | 5.4 nM | 107 nM | 86 nM |  |  |
| COCC(C)Oc1nc(-c2ccco2)nc(N)c1C(=O)NCc1ncccc1C (centres unmarked) [Example 20.12, 4-Amino-2-(2-furyl)-6-(2-methoxy-1-methyl-ethoxy)-N-[(3-methyl-2-pyridyl)methyl]pyrimidine-5-carboxamide] | 0.21 nM | 13 nM | 540 nM | 1.4 nM |  |  |
| Cc1cccc(CNC(=O)c2cnc(-c3ccco3)nc2N)n1 [Example 5.32, 4-Amino-2-(2-furyl)-N-[(6-methyl-2-pyridyl)methyl]pyrimidine-5-carboxamide] | 3.3 nM | 1890 nM | 437 nM | 1410 nM |  |  |
| Nc1nc(-c2ccco2)ncc1C(=O)NCc1ccccc1C(F)F [Example 5.35, 4-Amino-N-[[2-(difluoromethyl)phenyl]methyl]-2-(2-furyl)pyrimidine-5-carboxamide] | 12 nM | 2620 nM | 1330 nM | 2800 nM |  |  |
| Nc1nc(-c2ccco2)ncc1C(=O)NCc1ncccc1C(F)(F)F [Example 5.30, 4-Amino-2-(2-furyl)-N-[[3-(trifluoromethyl)-2-pyridyl]methyl]pyrimidine-5-carboxamide] | 2.7 nM | 4750 nM | 2350 nM |  |  | 2300 nM |
| Cc1ccc(CNC(=O)c2cnc(-c3cccc(F)c3)nc2N)cc1 [Example 10, 4-Amino-2-(3-fluorophenyl)-N-(p-tolylmethyl)pyrimidine-5-carboxamide] | 796 nM | 4440 nM | 8490 nM | 1800 nM | 796 nM |  |
| Nc1nc(-c2cccc(F)c2)ncc1C(=O)NCc1cccc(F)c1 [Example 10.3, 4-Amino-2-(3-fluorophenyl)-N-[(3-fluorophenyl)methyl]pyrimidine-5-carboxamide] | 180 nM | 598 nM | 1360 nM | 504 nM | 180 nM |  |
| Nc1nc(-c2ccco2)ncc1C(=O)NCc1ccccc1Cl [Example 5.15, 4-Amino-N-[(2-chlorophenyl)methyl]-2-(2-furyl)pyrimidine-5-carboxamide] | 5.1 nM | 3990 nM | 1210 nM | 2170 nM | 5.1 nM |  |
| Nc1nc(-c2cccc(F)c2)ncc1C(=O)NCc1cccc(Cl)c1 [Example 10.2, 4-Amino-N-[(3-chlorophenyl)methyl]-2-(3-fluorophenyl)pyrimidine-5-carboxamide] | 194 nM | 280 nM | 1480 nM | 582 nM | 194 nM |  |
| CC(=O)NCCOc1nc(-c2ccco2)nc(N)c1C(=O)NCc1ncccc1C [Example 20, 4-(2-Acetamidoethoxy)-6-amino-2-(2-fury)-N-[(3-methyl-2-pyridyl)methyl]pyrimidine-5-carboxamide] | 1.1 nM | 109 nM | 508 nM | 830 nM |  |  |
| CCOC(=O)c1nnc(-c2ccco2)nc1N [Example 1, Ethyl 5-amino-3-(2-furyl)-1,2,4-triazine-6-carboxylate] | 61 nM | 314 nM | 382 nM | 101 nM | 60 nM |  |
| Cc1cccnc1CNC(=O)c1c(N)nc(-c2ccco2)nc1OCCN [Example 23.1, 4-Amino-6-(2-aminoethoxy)-2-(2-furyl)-N-[(3-methyl-2-pyridyl)methyl]pyrimidine-5-carboxamide] | 0.62 nM | 59 nM | 490 nM | 73 nM |  |  |
| Nc1nc(-c2cccc(F)c2)ncc1C(=O)NCc1ccc(F)cc1 [Example 10.4, 4-Amino-2-(3-fluorophenyl)-N-[(4-fluorophenyl)methyl]pyrimidine-5-carboxamide] | 959 nM | 3800 nM | 6060 nM | 1820 nM | 959 nM |  |
| COCCOc1nc(-c2ccco2)nc(N)c1C(=O)NCc1ncccc1C [Example 20.6, 4-Amino-2-(2-furyl)-6-(2-methoxyethoxy)-N-[(3-methyl-2-pyridyl)methyl]pyrimidine-5-carboxamide] | 0.54 nM | 19 nM | 382 nM | 5.6 nM |  |  |
| Cc1cccnc1CNC(=O)c1c(N)nc(-c2ccco2)nc1OCC(F)(F)F [Example 20.2, 4-Amino-2-(2-furyl)-N-[(3-methyl-2-pyridyl)methyl]-6-(2,2,2-trifluoroethoxy)pyrimidine-5-carboxamide] | 0.21 nM | 4 nM | 37 nM | 9.9 nM |  |  |
